# Results reported in article PMC12606641, “Surface Density of Mono- and Trivalent High-Mannan-Derived Targeting Structures with Different Affinities Impacts Cellular Uptake of Human Serum Albumin-Derived Nanocarriers” (Biomacromolecules, 2025).
# How the values were obtained:
# CD209 CRD = target: T1, CD209 CRD (Homo sapiens, UniProt Q9NNX6); experiment: NanoDSF thermal shift binding study, CD209 CRD; conditions: for Kd: calculated from EC50 with KD=(1−fuo)×(EC50−[P]/2); for EC50: 12 μM protein, unfolded fraction evaluated at 63 °C, Hill fit, read-out: EC50 (unfolded fraction vs TS concentration)
# T1 construct: Carbohydrate recognition domain of CD209; inferred from HisTrap/imidazole purification; made in house
# T1 sequence (Q9NNX6 263-378 limits assumed): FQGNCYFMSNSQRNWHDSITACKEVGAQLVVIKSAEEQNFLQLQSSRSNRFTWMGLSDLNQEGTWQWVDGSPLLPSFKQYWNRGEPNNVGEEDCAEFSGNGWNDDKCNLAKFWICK
# Method: (§1) Thermal shift experiments were performed by using a Prometheus NanoDSF instrument (NanoTemper, Munich, Germany). […] Each ligand concentration was measured in triplicate. Samples were subjected to a controlled temperature increase from 20 to 85 °C at a rate of 1.5 °C per minute. Protein unfolding was monitored by measuring the fluorescence emission ratio at 350 and 330 nm. […] Data were analyzed according to the vertical slice method developed by Bai et al. The unfolded fraction was plotted against the ligand concentration, and EC50 values were determined by fitting the data to the Hill equation using GraphPad Prism 8.0.1. K D values were calculated using eq based on the unfolded fraction in the absence of ligand (f uo) and the total protein concentration ([P]). Associated errors were determined according to the standard error propagation rules. KD=(1−fuo)×(EC50−[P]/2) 1 […]
# (§2) In this study, NanoDSF was used to investigate the binding affinity of unconjugated monovalent TSs ManN3 and Man3N3, as well as the trivalent TSs (Man)3N3 and (Man3)3N3 for isolated CRDs of CD206 and CD209. Utilization of isolated CRDs instead of the complete tetrameric and octameric receptors allowed an investigation of the affinity without the potential occurrence of avidity effects taking place on the receptor side. […] The observed binding affinities to the isolated CRDs were in the low millimolar range, with all ligands showing stabilizing effects. […] In the solid-phase assay, the biotinylated CRDs were immobilized on streptavidin-coated plates in a defined orientation, likely enhancing the effective presentation of the binding site. In contrast, NanoDSF measurements were conducted with isolated, solubilized monomeric CRDs without surface- or orientation-related effects. Additionally, steric effects and interactions arising from the linker moiety may also impact binding affinity.
# (§3) 3 NanoDSF study for binding of mono- and trivalent TSs ManN3, Man3N3, (Man)3N3, and (Man3)3N3 to the CRDs of CD206 and CD209. (A) Affinity of mono- and trivalent TSs for CRD4 of CD206. (B) Affinity of mono- and trivalent TSs for CRD of CD209. The unfolded fraction of each CRD at different TS concentrations was determined at 53 °C for CD206 and at 63 °C for CD209. The unfolded fraction was plotted against TS concentration, and EC50 values were determined using GraphPad Prism 8.0.1. The respective K D values were calculated from EC50, as described in section , and are given for each case.
# D (150 mM NaCl, 25 mM Tris-Cl, pH 7.8, 25 mM CaCl₂), the bound protein was eluted with buffer E (150 mM NaCl, 25 mM Tris-Cl, pH 7.8, 2.5 mM EDTA).
# 6.1.2 Carbohydrate recognition domain of CD209
# The recombinant CRD of CD209 was expressed as described previously.55 Briefly, a pET-30 expression vector containing the CRD of CD209 was transformed into competent Escherichia coli (E. coli) BL21 (DE3) cells. The cells were grown in LB medium containing 100 µg/mL kanamycin at 37 °C and 160 rpm until they reached an optical density (OD₆₀₀) of approximately 0.7. Overexpression was induced by adding 0.5 mM IPTG for approximately 3 hours at 37 °C. Cells were harvested by centrifugation (10.000 × g at 4 °C for 15 minutes) and resuspended in cold buffer A (25 mM Tris-Cl, 150 mM NaCl, pH 8) supplemented with lysozyme, one tablet of protease inhibitor (cOmplete ™, Roche), and DNase I. Lysis was performed by thoroughly sonicating the resuspended cell pellets. Cell debris and inclusion bodies were collected by centrifugation (20,000 × g at 4 °C for 1 hour), and the supernatant was discarded. The inclusion bodies were resuspended in buffer A supplemented with 2 M urea and 1% Triton X-100. After a second centrifugation step, the inclusion bodies were solubilized in buffer A supplemented with 6 M guanidine hydrochloride and 0.01 % 2-mercaptoethanol. Insoluble impurities were removed by centrifugation (20.000 × g at 4 °C for 1 hour). The resulting supernatant was dialyzed […]
# CD206 CRD4 = target: T2, CD206 CRD4 (Homo sapiens, UniProt P22897); experiment: NanoDSF thermal shift binding study, CD206 CRD4; conditions: for Kd: CD206 CRD4, calculated from EC50 with KD=(1−fuo)×(EC50−[P]/2); for EC50: CD206 CRD4, 12 μM protein, unfolded fraction evaluated at 53 °C, Hill fit, read-out: EC50 (unfolded fraction vs TS concentration)
# T2 construct: Carbohydrate recognition domain 4 of CD206; made in house
# T2 sequence (P22897 655-778 limits assumed): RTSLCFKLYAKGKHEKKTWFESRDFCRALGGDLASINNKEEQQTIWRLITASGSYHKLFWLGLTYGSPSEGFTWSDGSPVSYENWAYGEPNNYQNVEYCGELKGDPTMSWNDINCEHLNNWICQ
# Method: as §1, §2
# as §3, with “case. […]” for “case.”
# 6 NanoDSF binding study for mono- and trivalent TSs
# 6.1 Recombinant protein expression and purification.
# 6.1.1 Carbohydrate recognition domain 4 of CD206
# CRD 4 of CD206 was expressed as described previously.50 Briefly, a pT5T expression vector containing CRD4 of CD206 was transformed into competent Escherichia coli (E. coli) BL21 (DE3) cells. The cells were grown in LB medium containing 100 µg/mL ampicillin at 37 °C and 160 rpm until they reached an optical density (OD₆₀₀) of approximately 0.7. Overexpression was induced by adding 0.4 mM Isopropyl-β-D-thiogalactopyranoside (IPTG) for approximately 2.5 hours at 37 °C. Cells were harvested by centrifugation (10.000 × g at 4 °C for 15 minutes) and resuspended in cold buffer A (10 mM Tris-Cl, pH 7.8). Lysis was performed by thoroughly sonicating the cell pellets. Cell debris and inclusion bodies were collected by centrifugation (18,000 × g at 4 °C for 15 minutes), and the supernatant was discarded.
# The inclusion bodies were then solubilized in 100 mL of denaturing buffer B (6 M guanidine-HCl, 100 mM Tris-Cl, pH 7.0). After adding 2-mercaptoethanol (10 µL), the suspension was incubated at 4 °C on ice for 30 minutes. Insoluble impurities were removed by centrifugation (18,000 × g at 4 °C for 30 minutes). The supernatant was refolded by three-step dialysis against 2 L of buffer C (0.5 M NaCl, 25 mM Tris-Cl, pH 7.8, 25 mM CaCl₂) at 4 °C overnight. After centrifugation (18,000 × g at 4 °C for […]
# [1] = test system: tetrameric extracellular domains (ECDs) of CD209; set-up: method as in Li et al.; conditions: TS presented in a trivalent manner, SPR, CD209 ECD; ref Li et al.; read-out: IC50 (binding affinity), trivalent presentation; cited from earlier work
Molecule,Kd (CD209 CRD),Kd (CD206 CRD4),EC50 (CD209 CRD),EC50 (CD206 CRD4),IC50 [1]
[N-]=[N+]=NCCOCCOCCOCCC(=O)NC(COCCC(=O)NCCOCCOCCOCCn1cc(CO[C@H]2O[C@H](CO)[C@@H](O)[C@H](O)[C@@H]2O)nn1)(COCCC(=O)NCCOCCOCCOCCn1cc(CO[C@H]2O[C@H](CO)[C@@H](O)[C@H](O)[C@@H]2O)nn1)COCCC(=O)NCCOCCOCCOCCn1cc(CO[C@H]2O[C@H](CO)[C@@H](O)[C@H](O)[C@@H]2O)nn1 [(Man)3N3],10.3 mM,6.8 mM,–,–,–
trimannose,–,–,–,–,0.0024 mM
[N-]=[N+]=NCCOCCOCCOCCC(=O)NC(COCCC(=O)NCCOCCOCCOCCn1cc(CO[C@H]2O[C@H](CO[C@H]3O[C@H](CO)[C@@H](O)[C@H](O)[C@@H]3O)[C@@H](O)[C@H](O[C@H]3O[C@H](CO)[C@@H](O)[C@H](O)[C@@H]3O)[C@@H]2O)nn1)(COCCC(=O)NCCOCCOCCOCCn1cc(CO[C@H]2O[C@H](CO[C@H]3O[C@H](CO)[C@@H](O)[C@H](O)[C@@H]3O)[C@@H](O)[C@H](O[C@H]3O[C@H](CO)[C@@H](O)[C@H](O)[C@@H]3O)[C@@H]2O)nn1)COCCC(=O)NCCOCCOCCOCCn1cc(CO[C@H]2O[C@H](CO[C@H]3O[C@H](CO)[C@@H](O)[C@H](O)[C@@H]3O)[C@@H](O)[C@H](O[C@H]3O[C@H](CO)[C@@H](O)[C@H](O)[C@@H]3O)[C@@H]2O)nn1 [(Man3)3N3],> 26.6 mM,3.1 mM,–,–,–

# More lines, main results first:
Kd (CD209 CRD),Kd (CD206 CRD4),EC50 (CD209 CRD),EC50 (CD206 CRD4),Molecule,IC50 [1]
> 36.3 mM,1.3 mM,> 79.8 mM,3.1 ± 0.6 mM,[N-]=[N+]=NCCOCCOCCOCCn1cc(CO[C@H]2O[C@H](CO)[C@@H](O)[C@H](O)[C@@H]2O)nn1 [ManN3],–
7.2 mM,6.9 mM,16.4 ± 1.9 mM,14.9 ± 0.97 mM,[N-]=[N+]=NCCOCCOCCOCCn1cc(CO[C@H]2O[C@H](CO[C@H]3O[C@H](CO)[C@@H](O)[C@H](O)[C@@H]3O)[C@@H](O)[C@H](O[C@H]3O[C@H](CO)[C@@H](O)[C@H](O)[C@@H]3O)[C@@H]2O)nn1 [Man3N3],–
